# According to patent US20110263478A1, “SUR1 INHIBITORS FOR THERAPY” (priority 2008, published 2011):
# pEC50, pIC50: −log10 of the molar value.
# What was measured:
# [1] = tested on: rats with spinal cord injury (SCI); test: Rat cervical SCI model: hemorrhage / extravasated blood in cord; format: in vivo; conditions: 1 d post-SCI
# Procedure: Constant infusion of a low-dose of drug was used to achieve sustained occupancy of only high-affinity receptors.
# (§1) SCI injury model. This study was performed in accordance with the guidelines of the Institutional Animal Care and Use Committee. Adult female Long-Evans rats (275-350 gm) were anesthetized (Ketamine, 60 mg/kg plus Xylazine, 7.5 mg/kg, i.p.). The dura at C4-5 was exposed via a left hemilaminectomy. A hemi-cervical spinal cord contusion was created using a blunt force impactor (1.3-mm impactor head driven by a 10 gm weight dropped vertically 25 mm) (Soblo sky et al., 2001; Gensel et al., 2006). After SCI, animals were given 10 ml of glucose-free normal saline s.q. Rectal temperature was maintained at ˜37° C. using a servo-controlled warming blanket. Blood gases and serum glucose 10-15 min post-SCI were: pO2, 95±6 mm Hg; pCO2, 46±3 mm Hg; pH, 7.33±0.01; glucose 258±17 mg/dl in controls and pO2, 96±7 mm Hg; pCO2, 45±2 mm Hg; pH, 7.37±0.01; glucose 242±14 mg/dl in glibenclamide-treated animals.
# (§2) Drug delivery. […] During the course of the project, slightly different formulations of drug were used, with the best results obtained using stock solutions made by placing 50 mg (or 25 mg) of drug into 10 ml DMSO, and infusion solutions made by placing 400 μl (or 800 μl) stock into 4.6 ml (or 4.2 ml) unbuffered saline (0.9% NaCl) and adjusting the pH to ˜8.5 using 0.1 N NaOH.
# (§3) For in vivo gene suppression of SUR1, we used oligodeoxynucleotides that were phosphorothioated at 4 distal bonds to protect against endogenous nucleases (35). Within a few min of SCI, mini-osmotic pumps (Alzet 2002, 0.5 μl/h; Durect Corporation) with jugular vein catheters were implanted that delivered either scrambled sequence ODN (Scr-ODN) (5′-[…]-3′; SEQ ID NO:1) or antisense ODN (AS-ODN) (5′-[…]-3′; SEQ ID NO:2) (Yokoshiki et al., 1999) in PBS at a rate of 1 mg/rat/24 h.
# Tissue blood. Rats were sacrificed at various times after SCI (n=5-11 rats/group), were perfused with heparinized saline to remove intravascular blood, and 5-mm segments of cord encompassing the lesion were homogenized and processed as described (Choudhri et al., 1997).
# [2] = tested on: rats with spinal cord injury (SCI); test: Rat cervical SCI model: histology, capillaries and lesion size; format: in vivo; conditions: 7 d post-SCI
# Procedure: as §1, §2
# Lesion size. At 7 d post-SCI, cords were paraffin sectioned and stained with H&E. Lesion volumes were calculated from lesion areas measured on serial sections every 250 μm.
# Immunohistochemistry. Cryosections were immunolabeled (Chen et al., 2003; Simard et al., 2006) using primary antibodies directed against SUR1 (Santa Cruz, C-16; 1:200; 1 h at RT, 48 h at 4° C.), SUR2 (Santa Cruz, H-80; 1:200; 1 h at RT, 48 h at 4° C.), GFAP (Sigma, C-9205; 1:500), and vimentin (Sigma, monoclonal CY3 conjugated; 1:100). Quantitative immunofluorescence was performed as described (Gerzanich et al., 2003).
# [3] = tested on: rats with spinal cord injury (SCI); test: Rat cervical SCI model: neurobehavioral assessment (inclined plane, paw placement, rearing); format: in vivo
# Procedure: as §1, with “blanket.” for “blanket. Blood gases and serum glucose 10-15 min post-SCI were: pO2, 95±6 mm Hg; pCO2, 46±3 mm Hg; pH, 7.33±0.01; glucose 258±17 mg/dl in controls and pO2, 96±7 mm Hg; pCO2, 45±2 mm Hg; pH, 7.37±0.01; glucose 242±14 mg/dl in glibenclamide-treated animals.”
# For in vivo gene suppression of SUR1, we used oligodeoxynucleotides that were phosphorothioated at 4 distal bonds to protect against endogenous nucleases (35).
# Neurobehavioral assessment. All measurements were performed by blinded evaluators. Performance on the inclined plane was evaluated as described (Rivlin and Tator, 1977). To assess paw placement and vertical exploration (rearing) (Nikulina et al., 2004) animals were videotaped while in a translucent cylinder (19×20 cm). Rearing was quantified as the number of seconds spent with both front paws elevated above shoulder-height during a 3-min period of observation.
# SUR1 [4] = test: Gliotic capsule model with ODN infusion: SUR1 Western blot and astrocyte patch clamp; format: in vivo, rat
# Procedure: To validate the antisense strategy, it was first implemented in the model that was originally used for the discovery of the NCCa-ATP channel, wherein a gelatin sponge is implanted into the parietal lobe to stimulate formation of a gliotic capsule (Chen and Simard, 2001). Here, animals were also fitted with mini-osmotic pumps that delivered oligodeoxynucleotides (ODN), either antisense (AS) or scrambled (Scr), continuously for 7 d into the injury site.
# SUR1 knock-down in astrocytes was performed in triplicates by implanting rats with gelatin sponges in the parietal lobe to induce formation of a gliotic capsule containing reactive astrocytes that express the SUR1-regulated NCCa-ATP channel (Chen and Simard, 2001; Chen et al., 2003). At the same time, they were implanted with mini-osmotic pumps (Alzet, model 2002; 14-day pump) placed in the dorsal thoracolumbar region that contained ODN (711 μg/ml delivered @ 0.5 μl/h, yielding 1500 picomoles/day), with the delivery catheter placed directly into the site of the gelatin sponge implant in the brain. Animals were infused with Src-ODN or AS-ODN, as above but not phosphorothioated. After 10-14 days, the gelatin sponge plus encapsulating gliotic tissues were harvested and processed either for Western immunoblots or to obtain fresh reactive astrocytes for patch clamp electrophysiology. […]
# SUR1 [5] = test: SCI with i.v. ODN: SUR1 immunolabeling of cord; format: in vivo, rat
# Source text: For studies with SCI, AS-ODN and Scr-ODN were used that were phosphorothioated at 4 distal bonds to protect against endogenous nucleases (Galderisi et al., 1999), with ODN's administered i.v. starting immediately after injury. […] With Scr-ODN, the necrotic void beneath the impact site was surrounded by an SUR1-positive shell of tissue, similar to observations in untreated animals (FIG. 1a). With AS-ODN, however, only the small volume of tissue immediately beneath the impact site was labeled for SUR1, and no necrotic void was evident (FIG. 5c).
# as §3
# Immunohistochemistry. […] Quantitative immunofluorescence was performed as described (Gerzanich et al., 2003).
# [6] = target: native and recombinant β-cell KATP channels (Homo sapiens, UniProt Q09428); conditions: read-out: IC50, block of β-cell KATP channels; cited from earlier work
# [7] = target: T1, SUR-regulated channels (KATP / NCCa-ATP) in human aortic endothelial cells (Homo sapiens, UniProt Q09428); test: Nystatin-perforated patch clamp, diazoxide activation in endothelial cells cultured under normoxic or hypoxic conditions; format: cell-based; conditions: most endothelial cells cultured under hypoxic conditions
# T1 construct: host or cells: human aortic endothelial cells, cultured under normoxic or hypoxic conditions
# Procedure: (§4) Patch clamp of endothelial cells was performed using a nystatin-perforated patch technique, to maintain the metabolic integrity of the cells. The identity of the activated channel can be assessed by measurement of the “reversal potential”, the potential at which an ion channel current reverses from inward to outward. With physiologically relevant concentrations of ions intracellularly and extracellularly (high potassium inside, high sodium outside), the reversal potential can unambiguously distinguish between a K^+ channel current such as KATP, which reverses negative to −50 mV and a non-selective cation channel current such as NCCa-ATP, which reverses near 0 mV.
# (§5) Cell culture. Endothelial cell cultures from human brain microvessels, human aorta (ScienCell Research Laboratories), and murine brain microvessels (bEnd.3; ATCC), were grown at low density using media and supplements recommended by suppliers.
# [8] = tested on: SUR-regulated channels (KATP / NCCa-ATP) in human aortic endothelial cells; test: as above; format: cell-based; conditions: endothelial cells cultured under normoxic conditions
# Procedure: as §4, §5
# [9] = tested on: Abcc8 mRNA and SUR1 protein in bEnd.3 cells; test: TNFα exposure of bEnd.3 cells: RT-PCR and immunoblot for Abcc8 / SUR1; format: cell-based, murine; conditions: 6-hr exposure, 20 ng/ml
# Procedure: Immunoblot. Lysates of inferomedial cortex, or of cultured bEnd.3 cells (ATCC, Monassas, Va.) that had been exposed to TNFα (20 ng/ml) for 6 hr, were prepared by homogenizing in RIPA lysis buffer. SUR1 was immunoisolated using a custom antibody raised against amino acids 598-965 (Protein Id, NP_037171) in rabbits by a commercial service (Covance, Denver, Pa.). This custom antibody was used to immunoisolate SUR1 using standard techniques, following which immunoisolated SUR1 was run on electrophoretic gels (NuPAGE® 4-12% Bis-Tris gels; Novex, Invitrogen, Carlsbad, Calif.). SUR1 was detected using the same custom antibody. Membranes were stripped and re-blotted for β-actin (1:5000; Sigma), which was used as a loading control. Detection was carried out using the ECL system (Amersham BioTBIences, Inc.) with routine imaging (Fuji LAS-3000) and quantification (Scion Image, Scion Corp, Frederick, Md.).
# RT-PCR. bEnd.3 cells were exposed to TNFα (20 ng/ml) for 6 hr. RNA was extracted with TRIzol reagent (Invitrogen). RT-PCR was performed using Reverse Transcription System (Promega). The target transcript was reverse transcribed at RT for 10 min, then incubated at 42° C. for 15 min. The cDNA was amplified using 35 cycles under the following conditions: 94° C. for 30 sec; 57° C. for 45 sec; 72° C. for 45 sec. […] RT-PCR products (449 bp) were analyzed using 2.0% agarose/EtBr gel electrophoresis.
# [10] = tested on: rAbcc8 promoter / NFκB consensus sequences; test: Luciferase reporter assay in HeLa cells; format: cell-based; conditions: 20 ng/ml
# Procedure: Luciferase reporter assay. TNFα-stimulated activity of the promoter region of Abcc8 was determined using luciferase reporter plasmids as previously described. HeLa cells were transfected with luciferase reporter plasmids containing the rAbcc8 promoter (−3853 to +125) or four tandem NFκB consensus sequences (Clonetech, Mountain View, Calif.) using Lipofectamine-2000 (Invitrogen). Co-transfection of pRL-CMV, Renilla luciferase expression plasmid served as a control for transfection efficiency. The luciferase activity of cell extracts was determined using the Dual Luciferase system from Promega.
# [11] = target: SUR1-regulated NCCa-ATP channels (Rattus norvegicus, UniProt Q09429); conditions: read-out: EC50, block of SUR1-regulated NCCa-ATP channel; cited from earlier work
# [12] = 1 d post-SCI, ODN i.v., vs Scr-ODN
# native and recombinant β-cell KATP channels, sequence (Q09428 whole entry): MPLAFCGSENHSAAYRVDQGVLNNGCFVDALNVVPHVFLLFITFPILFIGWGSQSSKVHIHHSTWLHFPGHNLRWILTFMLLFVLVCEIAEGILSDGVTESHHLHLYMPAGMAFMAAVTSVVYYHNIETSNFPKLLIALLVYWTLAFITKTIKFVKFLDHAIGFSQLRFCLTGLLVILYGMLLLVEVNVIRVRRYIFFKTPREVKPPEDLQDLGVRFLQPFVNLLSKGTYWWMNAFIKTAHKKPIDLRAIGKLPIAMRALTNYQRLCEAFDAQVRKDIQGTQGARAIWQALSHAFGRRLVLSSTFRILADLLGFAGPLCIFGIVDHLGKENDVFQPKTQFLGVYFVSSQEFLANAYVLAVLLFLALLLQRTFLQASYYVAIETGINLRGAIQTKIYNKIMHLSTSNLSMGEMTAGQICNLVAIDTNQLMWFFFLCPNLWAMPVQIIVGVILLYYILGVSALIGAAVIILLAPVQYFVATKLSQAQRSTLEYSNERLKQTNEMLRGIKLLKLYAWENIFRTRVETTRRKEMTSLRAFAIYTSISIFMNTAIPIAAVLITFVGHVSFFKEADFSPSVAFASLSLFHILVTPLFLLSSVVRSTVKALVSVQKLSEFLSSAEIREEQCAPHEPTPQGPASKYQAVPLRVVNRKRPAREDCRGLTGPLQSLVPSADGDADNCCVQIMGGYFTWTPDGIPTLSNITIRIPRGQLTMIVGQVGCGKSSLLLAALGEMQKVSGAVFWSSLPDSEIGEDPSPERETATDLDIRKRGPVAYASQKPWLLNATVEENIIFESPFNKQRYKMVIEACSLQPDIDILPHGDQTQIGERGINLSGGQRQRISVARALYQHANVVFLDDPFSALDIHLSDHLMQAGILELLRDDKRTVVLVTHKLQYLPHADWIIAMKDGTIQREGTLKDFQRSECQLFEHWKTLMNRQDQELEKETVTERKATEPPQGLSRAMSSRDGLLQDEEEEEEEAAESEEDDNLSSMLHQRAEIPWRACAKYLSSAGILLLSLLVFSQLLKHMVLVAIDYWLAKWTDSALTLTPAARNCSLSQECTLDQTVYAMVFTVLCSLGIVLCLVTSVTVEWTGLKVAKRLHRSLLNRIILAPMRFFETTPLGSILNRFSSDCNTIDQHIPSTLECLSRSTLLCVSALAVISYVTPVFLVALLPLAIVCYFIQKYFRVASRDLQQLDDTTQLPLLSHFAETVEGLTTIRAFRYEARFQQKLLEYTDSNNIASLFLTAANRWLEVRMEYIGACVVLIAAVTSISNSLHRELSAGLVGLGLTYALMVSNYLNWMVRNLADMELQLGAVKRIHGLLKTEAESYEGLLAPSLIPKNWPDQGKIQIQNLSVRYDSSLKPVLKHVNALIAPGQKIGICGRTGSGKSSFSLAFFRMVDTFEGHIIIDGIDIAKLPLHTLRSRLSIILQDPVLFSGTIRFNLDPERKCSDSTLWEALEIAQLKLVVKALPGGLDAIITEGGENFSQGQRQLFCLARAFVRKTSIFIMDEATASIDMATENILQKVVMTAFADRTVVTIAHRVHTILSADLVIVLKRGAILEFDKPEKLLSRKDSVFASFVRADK
# native and recombinant β-cell KATP channels, sequence (Q14654 whole entry partner): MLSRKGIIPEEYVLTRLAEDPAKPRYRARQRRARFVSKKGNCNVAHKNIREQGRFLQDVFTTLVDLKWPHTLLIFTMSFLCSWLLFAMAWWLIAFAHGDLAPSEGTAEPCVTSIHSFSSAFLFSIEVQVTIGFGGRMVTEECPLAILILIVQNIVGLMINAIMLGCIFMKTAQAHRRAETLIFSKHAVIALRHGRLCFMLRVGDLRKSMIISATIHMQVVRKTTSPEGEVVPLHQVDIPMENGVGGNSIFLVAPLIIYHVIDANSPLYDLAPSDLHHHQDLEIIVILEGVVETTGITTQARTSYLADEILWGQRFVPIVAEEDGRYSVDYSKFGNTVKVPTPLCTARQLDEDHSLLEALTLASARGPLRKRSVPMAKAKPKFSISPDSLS
# T1 sequence (Q09428 whole entry): as the sequence (Q09428 whole entry) above
# SUR1-regulated NCCa-ATP channels, sequence (Q09429 whole entry): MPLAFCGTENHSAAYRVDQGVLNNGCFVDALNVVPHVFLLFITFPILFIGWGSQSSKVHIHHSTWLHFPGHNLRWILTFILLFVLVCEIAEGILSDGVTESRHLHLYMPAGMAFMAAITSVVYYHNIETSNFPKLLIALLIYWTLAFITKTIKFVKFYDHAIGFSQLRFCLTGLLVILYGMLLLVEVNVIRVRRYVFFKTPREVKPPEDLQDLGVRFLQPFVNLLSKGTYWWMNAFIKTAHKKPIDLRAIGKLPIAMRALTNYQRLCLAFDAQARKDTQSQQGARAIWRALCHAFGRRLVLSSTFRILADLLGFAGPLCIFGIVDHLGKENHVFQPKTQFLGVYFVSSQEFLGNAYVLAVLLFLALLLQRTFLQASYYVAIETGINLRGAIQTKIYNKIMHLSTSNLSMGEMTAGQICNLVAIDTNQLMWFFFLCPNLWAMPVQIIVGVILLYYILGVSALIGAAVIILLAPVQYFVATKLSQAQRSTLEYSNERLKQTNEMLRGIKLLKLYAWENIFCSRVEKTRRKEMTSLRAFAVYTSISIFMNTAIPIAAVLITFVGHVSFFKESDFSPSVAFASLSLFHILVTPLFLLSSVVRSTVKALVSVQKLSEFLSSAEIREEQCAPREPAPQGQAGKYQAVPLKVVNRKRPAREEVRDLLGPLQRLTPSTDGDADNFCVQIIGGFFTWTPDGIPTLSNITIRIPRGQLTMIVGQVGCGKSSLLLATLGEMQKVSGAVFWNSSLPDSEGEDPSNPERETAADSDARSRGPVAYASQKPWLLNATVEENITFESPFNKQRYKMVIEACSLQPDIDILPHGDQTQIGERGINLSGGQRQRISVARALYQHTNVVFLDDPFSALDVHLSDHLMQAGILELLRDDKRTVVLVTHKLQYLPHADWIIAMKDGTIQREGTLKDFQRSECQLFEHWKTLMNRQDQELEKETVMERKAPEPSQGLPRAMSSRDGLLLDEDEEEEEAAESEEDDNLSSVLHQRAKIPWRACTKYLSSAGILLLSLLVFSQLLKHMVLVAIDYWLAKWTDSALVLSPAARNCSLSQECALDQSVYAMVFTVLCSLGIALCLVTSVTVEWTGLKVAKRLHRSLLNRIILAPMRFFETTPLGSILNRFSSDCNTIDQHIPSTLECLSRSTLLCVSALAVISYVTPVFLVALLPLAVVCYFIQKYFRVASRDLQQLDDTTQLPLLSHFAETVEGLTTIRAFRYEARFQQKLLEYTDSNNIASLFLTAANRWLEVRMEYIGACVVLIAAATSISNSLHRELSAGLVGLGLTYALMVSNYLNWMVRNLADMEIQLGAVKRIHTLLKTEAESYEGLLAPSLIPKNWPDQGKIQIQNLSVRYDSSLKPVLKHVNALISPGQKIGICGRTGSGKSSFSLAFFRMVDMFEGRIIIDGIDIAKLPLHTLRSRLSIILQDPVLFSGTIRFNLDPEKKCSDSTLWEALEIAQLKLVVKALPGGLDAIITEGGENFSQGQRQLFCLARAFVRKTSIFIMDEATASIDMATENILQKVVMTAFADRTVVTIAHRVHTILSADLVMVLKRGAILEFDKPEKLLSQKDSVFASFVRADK
# SUR1-regulated NCCa-ATP channels, sequence (Q9ESQ5 whole entry partner): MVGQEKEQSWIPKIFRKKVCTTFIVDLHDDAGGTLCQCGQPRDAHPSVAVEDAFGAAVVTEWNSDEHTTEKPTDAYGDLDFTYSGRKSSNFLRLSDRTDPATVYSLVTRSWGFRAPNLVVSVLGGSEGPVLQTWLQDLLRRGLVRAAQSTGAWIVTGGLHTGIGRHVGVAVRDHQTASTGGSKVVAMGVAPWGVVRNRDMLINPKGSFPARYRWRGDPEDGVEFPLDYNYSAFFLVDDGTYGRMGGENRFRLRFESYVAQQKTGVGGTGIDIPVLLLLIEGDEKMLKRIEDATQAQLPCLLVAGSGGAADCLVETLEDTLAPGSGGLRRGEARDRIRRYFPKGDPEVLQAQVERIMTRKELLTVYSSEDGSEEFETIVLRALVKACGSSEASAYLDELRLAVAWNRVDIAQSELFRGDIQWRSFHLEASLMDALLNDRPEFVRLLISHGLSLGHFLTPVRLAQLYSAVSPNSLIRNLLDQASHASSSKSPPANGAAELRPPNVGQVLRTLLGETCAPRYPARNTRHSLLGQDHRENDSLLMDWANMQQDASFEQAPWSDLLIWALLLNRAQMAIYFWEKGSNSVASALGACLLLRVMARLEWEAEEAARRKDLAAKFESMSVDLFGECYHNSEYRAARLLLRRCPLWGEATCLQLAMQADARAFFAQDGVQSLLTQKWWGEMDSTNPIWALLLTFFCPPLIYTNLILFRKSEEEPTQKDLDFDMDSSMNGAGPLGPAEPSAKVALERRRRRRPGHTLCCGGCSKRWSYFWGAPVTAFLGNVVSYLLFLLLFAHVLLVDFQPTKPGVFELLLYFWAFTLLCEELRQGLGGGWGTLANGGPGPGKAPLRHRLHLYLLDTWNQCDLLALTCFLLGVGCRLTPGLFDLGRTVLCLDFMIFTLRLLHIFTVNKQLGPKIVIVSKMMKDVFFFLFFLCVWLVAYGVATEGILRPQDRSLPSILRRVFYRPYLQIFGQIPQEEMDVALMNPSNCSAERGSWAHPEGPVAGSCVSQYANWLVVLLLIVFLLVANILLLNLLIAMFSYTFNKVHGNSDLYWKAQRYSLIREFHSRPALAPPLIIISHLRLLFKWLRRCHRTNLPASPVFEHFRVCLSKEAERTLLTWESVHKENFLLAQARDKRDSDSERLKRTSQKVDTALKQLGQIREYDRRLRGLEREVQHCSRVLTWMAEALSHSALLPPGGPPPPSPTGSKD
molecule,measurement,setting,value
"5′-GGCCGAGTGGTTCTCGGT-3′ (DNA, backbone not given here; phosphorothioate at four distal bonds) [AS-ODN]",blood in cord homogenates,"[1]; ODN i.v., vs Scr-ODN",reduced blood in cord homogenates
same,"lesion volume, reduction compared to controls",[2],3 fold
same,performance on inclined plane,[3]; [12],significantly better performance
same,vertical exploration,[3]; [12],significantly better performance
same,SUR1 protein in gliotic capsule (Western blot),"SUR1 [4]; ODN infused into injury site, vs Scr-ODN",significant reduction in SUR1 protein
same,depolarization of gliotic capsule astrocytes on ATP depletion by Na azide,SUR1 [4]; vs Scr-ODN (rapidly depolarized),depolarized only slightly or not at all
same,immunolabeling for SUR1 in cord,"SUR1 [5]; 6 h post-SCI, ODN i.v. 1 mg/rat/24 h, vs controls",significantly less immunolabeling for SUR1
same,normal expression of SUR1 in dorsal horn cells,"SUR1 [5]; post-SCI, ODN i.v.",did not affect
CCOc1cc(CC(=O)N[C@@H](CC(C)C)c2ccccc2N2CCCCC2)ccc1C(=O)O [repaglinide],blood in cord homogenates,"[1]; vehicle 1.8±0.2, P<0.01",1.2 ± 0.1 µL
same,"lesion volume, reduction compared to controls",[2],3 fold
same,"vertical exploration (rearing), time during 3-min observation","[3]; 1 d post-SCI, 200 ng/h s.q.",27 ± 6 s
same,"inclined plane, head down","[3]; post-SCI, vehicle 29±4, P=0.03",47±3 degrees
same,"inclined plane, head up","[3]; post-SCI, vehicle 40±4, P=0.01",62±2 degrees
same,pIC50,[6],8.15 to 9.05
CC1=NS(=O)(=O)c2cc(Cl)ccc2N1 [diazoxide],whole-cell current response to diazoxide,[7],activated an ohmic current that reversed near 0 mV
same,whole-cell current response to diazoxide,[8],"either had no effect or, in half of the cells, activated an outwardly rectifying current that reversed at potentials more negative than −50 mV"
TNFα,Abcc8 mRNA and SUR1 protein,[9],both increased
same,"activity of rAbcc8 promoter, increase",[10],~2 fold
same,"luciferase activity driven by NFκB binding sites, stimulation",[10],~2.3 fold
Nc1ncnc2c1ncn2[C@@H]1O[C@H](COP(=O)(O)OP(=O)(O)OP(=O)(O)O)[C@@H](O)[C@H]1O [ATP],pEC50,[11],6.10
